This note sets out measurements from patent US4957902A, “Peptide inhibitors of wound contraction” (Board of Regents, the University of Texas System, priority 1988, dated 1990).

The assay concerns Human skin fibroblasts on collagen-coated surfaces. Type of assay: cell-based. The note with it: 0.5 mg/ml peptide; serum-free DMEM; 60 minutes. As for the experimental part:
The incubations contained peptides at the concentrations indicated and cell spreading was measured after 60 minute Method: Falcon 35 mm tissue culture dishes were coated with collagen (Vitrogen 100; 50 ug/ml in DMEM) for 15 minutes at 37° C. and counter-coated for 15 minutes with 1 mg/ml heat denatured bovine serum albumin. Human skin fibroblasts in DMEM with peptides added at the concentrations indicated were incubated on the substrata for 60 minutes at 37°. The end of the incubations, the cells were fixed and projected cell surface areas were measured by superimposing the microscopic field on the digitizing tablet of a Zidas image analyzer. Data presented are averages±95% confidence limits based on measurement of 50-100 cells. See reference 21 for complete details.

With `N=C(N)NCCC[C@H](NC(=O)CN)C(=O)NCC(=O)N[C@@H](CC(=O)O)C(=O)N[C@@H](CO)C(=O)N1CCC[C@H]1C(=O)O` [GRGDSP, Gly--Arg--Gly--Asp--Ser--Pro], the “inhibition of cell spreading on collagen-coated surfaces” value is on record as “about 50%”.
